# Literature values as cited in patent US11517522B2, “Aprepitant ready-to-use injection emulsion compositions” (priority 2020, dated 2022).
# How the values were obtained:
# [1] = test system: acute and delayed chemotherapy-induced nausea and vomiting; settings: versus aprepitant
# [2] = IV infusion
# [3] = given orally; commercial nanoparticulate composition (Emend)
solubility in acetonitrile (acetonitrile),solubility in ethanol (ethanol),solubility in isopropyl acetate (isopropyl acetate),solubility in water (water),bioavailability [3],SMILES,comparison with aprepitant in prevention and control of acute and delayed chemotherapy-induced nausea and vomiting [1],time for conversion to aprepitant [2]
–,–,–,–,–,"C[C@@H](O[C@H]1OCCN(Cc2nc(O)n(P(=O)(O)O)n2)[C@H]1c1ccc(F)cc1)c1cc(C(F)(F)F)cc(C(F)(F)F)c1 [Fosaprepitant, fosaprepitant dimeglumine]",non-inferiority and bioequivalency,less than 30 minutes
slightly soluble,sparingly soluble,sparingly soluble,practically insoluble,60-65%,"C[C@@H](O[C@H]1OCCN(Cc2n[nH]c(=O)[nH]2)[C@H]1c1ccc(F)cc1)c1cc(C(F)(F)F)cc(C(F)(F)F)c1 [Aprepitant, 5-([(2R, 3S)-2-((R)-1-[3,5-bis (trifluoromethyl)phenyl]ethoxy)-3-(4-fluoro-phenyl)morpholino]methyl)-1H-1,2,4-triazol-3(2H)-one]",–,–
